Results: patent EP3736570A1, “METHOD FOR THE DIAGNOSIS, SUB-CLASSIFICATION AND PROGNOSIS OF ACUTE KIDNEY INJURY BY DETECTING CCT7” (Fundación Instituto de Estudios de Ciencias de la Salud de …, priority 2019, dated 2020)
Where a name gives a salt, the structure may show the parent alone. Read-outs that look alike come from different tables or passages of the source.

Experiments:
MCT cells [1] = test system: MCT cells
Method: (§4) A mouse cortical tubule cell line (MCT) was used for the study. Cells were maintained in RPMI 1640 medium (Gibco, Madrid, Spain) supplemented with 10% fetal bovine serum (FBS, Gibco, Madrid, Spain), 500 U/mL penicillin, 50 mg/mL streptomycin (Gibco, Madrid, Spain) and 1 mM L-glutamine. […] During the treatments, cells were photographed under live cell, light microscope (Axiovert 200M, Zeiss; and Nikon Eclipse TS100, Barcelona, Spain) for visual inspection. At the end, cell extracts were obtained in extraction buffer (25 mM PIPES, pH7; 25 mM KCI; 5 mM EGTA; 0,5% NP-40, and a mixture of protease inhibitors consisting of 1 mM phenylsulfonyl fluoride, 1 µg/mL leupeptine, and 1 µg/mL aprotinin). Protein content was determined with a commercial kit (Bio-Rad, Madrid, Spain) based in the Lowry method.
(§5) Caspase activity. Twenty micrograms of protein from cell extracts were incubated with 100 µL reaction buffer (50 mM HEPES, pH7.4; 100 mM NaCl; 1 mM EDTA; 0.1% 3-[3-(cholamidopropyl)-dimethylammonio]-1-propane sulfonate; 10% sucrose; and 5 mM DTT) containing 100 µM of the fluorogenic caspase substrate rhodamine 110, bis-(N-CBZ-L-aspartyl-L-glutamyl-L-valyl-L-aspartic acidamide (Z-DEVD)2Rh110; Anaspec, Fremont, CA, USA)) at 37 °C for 30 min in a Fluoroskan Ascent FL fluorometer (Thermo, Rockford, IL, USA), and fluorescence intensity was measured every 3 min at 538 nm, upon excitation at 485 nm. Caspase activity was calculated from the slope of the linear relationship between fluorescence intensity and time.

MCT cells [2] = test system: MCT cells; remark: listed apart in the source
Method: Where not otherwise indicated, reagents were purchased from Sigma (Madrid, Spain). A mouse cortical tubule cell line (MCT) was used for the study. Cells were maintained in RPMI 1640 medium (Gibco, Madrid, Spain) supplemented with 10% fetal bovine serum (FBS, Gibco, Madrid, Spain), 500 U/mL penicillin, 50 mg/mL streptomycin (Gibco, Madrid, Spain) and 1 mM L-glutamine. […] During the treatments, cells were photographed under live cell, light microscope (Axiovert 200M, Zeiss; and Nikon Eclipse TS100, Barcelona, Spain) for visual inspection.
MTT assay. Viable cell number was comparatively estimated by incubating cell cultures with 0.5 mg/mL 3-[4,5-dimethylthiazol-2-yl]-2,5-diphrnyl tetrazolium bromide (MTT) for 4h. Then, 10% SDS in 0.01 M HCL was added in 1:1 (vol/vol) and left overnight at 37 °C. Finally, absorbance was measured at 570 nm as an index of viable cell number.

MCT cells [3] = test system: MCT cells; remark: listed apart in the source
Method: (§6) Reagents, cells, and protocols. Where not otherwise indicated, reagents were purchased from Sigma (Madrid, Spain). A mouse cortical tubule cell line (MCT) was used for the study. Cells were maintained in RPMI 1640 medium (Gibco, Madrid, Spain) supplemented with 10% fetal bovine serum (FBS, Gibco, Madrid, Spain), 500 U/mL penicillin, 50 mg/mL streptomycin (Gibco, Madrid, Spain) and 1 mM L-glutamine. […] During the treatments, cells were photographed under live cell, light microscope (Axiovert 200M, Zeiss; and Nikon Eclipse TS100, Barcelona, Spain) for visual inspection. At the end, cell extracts were obtained in extraction buffer (25 mM PIPES, pH7; 25 mM KCI; 5 mM EGTA; 0,5% NP-40, and a mixture of protease inhibitors consisting of 1 mM phenylsulfonyl fluoride, 1 µg/mL leupeptine, and 1 µg/mL aprotinin). Protein content was determined with a commercial kit (Bio-Rad, Madrid, Spain) based in the Lowry method.

Male Wistar rats [4] = assay: Rat models of AKI: urinary markers by Western blot; format: in vivo
Text: (§1) Caspase activity. […] Western blot.
(§2) Rat models of AKI. Male Wistar rats (220-240 g) were housed under controlled experimental conditions and allowed free access to regular chow and water. […] Rats were allocated in metabolic cages to obtain 24-hour, individual urine samples. Blood was drawn with a needle from the tail vein, and plasma was obtained by centrifugation and, at the end of the treatments, kidneys were perfused with heparinized saline and immediately dissected. Half of the kidney was fixed in paraformaldehyde for histological studies, and the rest was frozen at -80 °C for biochemical analysis.

MCT cells [5] = assay: Internucleosomal DNA fragmentation; format: cell-based, mouse; conditions: cisplatin, 18 h, concentration-dependent
Method: (§3) Reagents, cells, and protocols.
DNA fragmentation. DNA fragmentation was determined with the commercial kit Cell Death Detection Plus (Roche Diagnostics, Barcelona, Spain) in 10 µg of protein from each cell extract.

MCT cells [6] = assay: RT-qPCR analysis of gene expression; format: cell-based, mouse; conditions: 0-30 µM cisplatin, 18 h, normalized with RPS13
Method: as §3
RT-qPCR analysis. Total RNA was isolated using Nucleospin RNAII (Macherey-Nagel, Düren, Germany). First-strand cDNA was generated from 1 µg of total RNA using poly-dT as primer with the M-MLV reverse transcriptase (Promega, Barcelona, Spain). Real-time PCR (qPCR) was performed in triplicate. In a total reaction volume of 20 µL containing 1 µL of cDNA, 0.4 µM of each primer and 1x iQSybrGreen Supermix (Bio-Rad), with initial denaturation at 95 °C for 5 min followed by 40 cycles of 30 sec at 95 °C, and 30 sec at 65 °C, and finally, one cycle of 30 sec at 72 °C. Threshold cycle (Ct) values were obtained. The sequences of TCP1-eta used were: sense 5'-[…]-3' (SEQ ID NO: 1); anti-sense 5'-[…]-3' (SEQ ID NO: 2); and RPS13: sense 5'-[…]-3' (SEQ ID NO: 3); anti-sense 5'-[…]-3' (SEQ ID NO: 4). Standard curves were run for each transcript to assure exponential amplification and to rule out non-specific amplification. Changes in the expression level were calculated following normalization with RPS13. The reactions were run on an iQ5 Real-Time PCR detection system (Bio-Rad, Madrid, Spain).

MCT cells [7] = assay: Caspase (DEVDase) activity in cell extracts; format: cell-based, mouse; conditions: cisplatin, 18 h, concentration-dependent
Text: as §3, §1

MCT cells [8] = assay: Apoptotic cells / death phenotype by light microscopy; conditions: medium without serum, 18 h, cisplatin 0-30 µM, cycloheximide 50-800 µM
Method: as §6

Male Wistar rats [9] = assay: Rat models of AKI: renal histopathology; format: in vivo; conditions: hematoxylin and eosin, cisplatin 5 mg/kg i.p., gentamicin 150 mg/kg per day i.p. for 6 days
Text: as §2
Renal histopathology. Paraformaldehyde-fixed tissue samples were immersed in paraffin, cut into […] slices and stained with hematoxylin and eosin.

MCT cells [10] = assay: Western blot / 2D proteomic analysis of culture medium and cell extracts; conditions: 18 h, cisplatin 0-30 µM, cycloheximide 50-800 µM
Method: as §4, §5

Male Wistar rats [11] = assay: Rat models of AKI: renal function (plasma creatinine); format: in vivo; conditions: cisplatin single i.p. 5 mg/kg, gentamicin i.p. 150 mg/kg per day for 6 days
Method: Renal function. Renal function was monitored by means of plasma creatinine and urea and urinary protein concentration, which were determined with commercial colorimetric kits (Quantichrom Creatinine and Quantichrom Urea Assay Kits, BioAssay Systems, Hayward, CA, USA), according to the manufacturer's instructions.

[12] = rats, cisplatin single i.p. 5 mg/kg, gentamicin i.p. 150 mg/kg per day for 6 days, Western blot

With `C[C@@H]1C[C@@H]([C@H](O)CC2CC(=O)NC(=O)C2)C(=O)[C@@H](C)C1` [Cycloheximide, cycloheximide] the “TCP1-eta in the culture medium” value (MCT cells [1]) was “increases TCP1-eta secretion to the culture medium”, the “executioner caspase 3 (active caspase 3, p19 fragment)” value (MCT cells [1]) was “executioner caspase 3 activation” and the cell viability (MCT cells [2]) was “reduces cell viability”. For the same compound, the “number of apoptotic cells / apoptotic phenotype” value (MCT cells [3]) was “induces apoptosis”.
In the case of `N.N.[Cl][Pt][Cl]` [cisplatin], the “urinary NGAL” value (Male Wistar rats [4]; [12]) is reported as “significantly increases”, the “urinary TCP1-eta” value (Male Wistar rats [4]; [12]) is reported as “significantly increases” and the “internucleosomal DNA fragmentation” value (MCT cells [5]) is reported as “increased”. For the same compound, the TCP1-eta gene expression (MCT cells [6]) was “progressive TCP1-eta gene induction with increasing concentrations of the drug”, the “caspase (DEVDase) activity” value (MCT cells [7]) was “increased” and the “number of apoptotic cells / apoptotic phenotype” value (MCT cells [8]) was “increased the number of apoptotic cells”. The “pattern of renal damage (region affected)” value (Male Wistar rats [9]) was “both the cortex and the outer medulla” and the “TCP1-eta in the culture medium” value (MCT cells [10]) was “increased with increasing concentrations of cisplatin”.
`O=C(O)/C=C\C(=O)O` [sodium maleate] was tested, and the “urinary TCP1-eta” value (Male Wistar rats [4]; normal rats, single i.v. injection of sodium maleate 400 mg/kg) was “TCP1-eta is excreted with the urine”.
In the case of gentamicin, the “urinary NGAL” value (Male Wistar rats [4]; [12]) is reported as “significantly increases”, the “urinary TCP1-eta” value (Male Wistar rats [4]; [12]) is reported as “significantly increases” and the Plasma creatinine (Male Wistar rats [11]) is reported as “significantly increases”. The “pattern of renal damage (region affected)” value (Male Wistar rats [9]) was “mostly the cortex and, to a lesser extent, the medulla”.
